From ChEMBL document CHEMBL1141346, “Psammaplysenes C and D, cytotoxic alkaloids from Psammoclemma sp” (J Nat Prod, 2007)

Key:
[1] = target: T1, P2X purinoceptor 7 (Homo sapiens) (UniProt Q99572); test: Antagonist activity at P2X7 receptor expressed in human THP1 cells after 90 mins; assay type: functional, cell-based; set-up: scale not given: the % may be the effect or the level left; conditions: THP-1
T1 sequence (whole entry): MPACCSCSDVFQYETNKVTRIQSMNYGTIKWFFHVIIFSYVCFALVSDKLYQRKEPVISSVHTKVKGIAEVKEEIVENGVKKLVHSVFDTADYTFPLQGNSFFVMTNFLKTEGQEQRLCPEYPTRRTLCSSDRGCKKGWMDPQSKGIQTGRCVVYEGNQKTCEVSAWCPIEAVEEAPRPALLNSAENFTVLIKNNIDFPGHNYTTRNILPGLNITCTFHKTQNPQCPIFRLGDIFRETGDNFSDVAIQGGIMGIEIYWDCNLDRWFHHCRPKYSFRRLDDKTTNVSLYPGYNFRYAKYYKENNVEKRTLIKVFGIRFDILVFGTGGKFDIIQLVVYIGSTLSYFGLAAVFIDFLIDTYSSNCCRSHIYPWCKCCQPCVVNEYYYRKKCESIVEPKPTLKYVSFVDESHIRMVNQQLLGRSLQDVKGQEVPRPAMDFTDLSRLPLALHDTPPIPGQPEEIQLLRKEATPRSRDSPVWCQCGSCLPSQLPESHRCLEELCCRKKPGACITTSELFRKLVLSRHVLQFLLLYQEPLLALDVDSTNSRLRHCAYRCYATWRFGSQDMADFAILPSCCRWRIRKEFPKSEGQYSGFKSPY

THP-1 = test: Cytotoxicity against human THP1 cells expressing P2X7 receptor after 21 hrs by Almar blue cytotoxicity assay; assay type: functional, cell-based; conditions: THP-1, 21 h

| Structure (SMILES) | Activity [1] [%] | IC50 (THP-1) [µM] |
| --- | --- | --- |
| CN(C)CCCOc1ccc(/C=C/C(=O)N(C)CCCOc2c(Br)cc(CCN(C)C)cc2Br)cc1Br [PSAMMAPLYSENE C] | 44 | 7 |
| CN(C)CCCOc1c(Br)cc(/C=C/C(=O)N(C)CCCOc2c(Br)cc(CCN(C)C)cc2Br)cc1Br [PSAMMAPLYSENE D] | 72 | 7 |
